From patent US20200163984A1, “USE OF ISOVALERYL SPIRAMYCIN I, II AND/OR III IN MANUFACTURING MEDICAMENT FOR TREATING AND/OR PREVENTING TUMOR, AND MEDICAMENT” (SHENYANG FUYANG PHARMACEUTICAL TECHNOLOGY CO., LTD., priority 2017, published 2020)
Converted amounts (≈) assume the structure as drawn. One block for each compound: values may come before it.

How the values were obtained:
[1] = test system: human breast cancer cells MCF-7; conditions: MCF-7, MTT, 48 hours
Experimental: (§1) The purpose of the assay is to evaluate the in vitro cell proliferation inhibition or cytotoxic activity of a tested sample.
(§2) MCF-7, MDA-MB-231, HepG2, A549, H460, H1299, 786-0, 769-P, U251, A172, HeLa, PC3, PANC-1, TE-1, SGC7901, and HT-29 were adherent tumor cells. The adherent tumor cells in the logarithmic growth phase were selected and digested with trypsin, then were prepared into a 4 to 5×10^4/ml cell suspension by a medium containing 10% fetal bovine serum. And the cell suspension was inoculated in a 96-well culture plate, and each well was 100 μL. The 96-well culture plate was cultured at 37° C. and 5% CO2 for 24 hours. The experimental group was replaced with a new culture medium containing different concentrations of the sample to be tested, namely, isovaleryl spiramycin I, isovaleryl spiramycin II, or isovaleryl spiramycin III, while the control group was replaced with a culture medium containing the same volume of solvent. Each group was set up with 3 parallel wells that were cultured at 37° C. and 5% CO2 for 48 hours. After the supernatant was removed, the wells were washed carefully for 3 times with PBS. And 100 μL of freshly prepared culture medium containing 0.5 mg/ml MTT was added to each well for continuous incubation for 4 hours at 37° C. After the supernatant was removed carefully, 150 μL of DMSO was added to each well, and after the material was mixed for 10 minutes with a micro-oscillator, the optical density value was measured at 492 nm with a microplate reader.
(§3) The inhibition rate of the medicament on tumor cell growth is calculated according to the following formula:
(§4) Tumor cell growth inhibition rate (%)=[A492 (negative control)−A492 (dosing group)]/A492 (negative control)×100%
(§5) And the half-inhibitory concentration (IC50) of the sample is determined therefrom.

[2] = test system: human breast cancer cells MDA-MB-231; conditions: MDA-MB-231, MTT, 48 hours
Experimental: as §1, §2, §3, §4, §5

[3] = test system: human cervical cancer cell HeLa; conditions: MTT, 48 hours
Experimental: as §1, §2, §3, §4, §5

[4] = test system: human colon cancer cell HT-29; conditions: HT-29, MTT, 48 hours
Experimental: as §1, §2, §3, §4, §5

[5] = test system: human esophageal cancer cell TE-1; conditions: TE-1, MTT, 48 hours
Experimental: as §1, §2, §3, §4, §5

[6] = test system: human gastric adenocarcinoma cell SGC7901; conditions: SGC-7901, MTT, 48 hours
Experimental: as §1, §2, §3, §4, §5

[7] = test system: human glioblastoma cell A172; conditions: A172, MTT, 48 hours
Experimental: as §1, §2, §3, §4, §5

[8] = test system: human glioma cell U251; conditions: U251, MTT, 48 hours
Experimental: as §1, §2, §3, §4, §5

[9] = test system: human hepatoma cells HepG2; conditions: HepG2, MTT, 48 hours
Experimental: as §1, §2, §3, §4, §5

[10] = test system: human large cell lung cancer cells H1299; conditions: H1299, MTT, 48 hours
Experimental: as §1, §2, §3, §4, §5

[11] = test system: human large cell lung cancer cells H460; conditions: H460, MTT, 48 hours
Experimental: as §1, §2, §3, §4, §5

[12] = test system: human non-small cell lung cancer cells A549; conditions: A549, MTT, 48 hours
Experimental: as §1, §2, §3, §4, §5

[13] = test system: human pancreatic cancer cell PANC-1; conditions: PANC-1, MTT, 48 hours
Experimental: as §1, §2, §3, §4, §5

[14] = test system: human prostate cancer cell PC3; conditions: PC3, MTT, 48 hours
Experimental: as §1, §2, §3, §4, §5

[15] = test system: human renal cell adenocarcinoma cell 769-P; conditions: MTT, 48 hours
Experimental: as §1, §2, §3, §4, §5

[16] = test system: human renal clear cell adenocarcinoma cell 786-O; conditions: MTT, 48 hours
Experimental: as §1, §2, §3, §4, §5

[17] = test system: transplanted tumor of HT-29 cells; assay: HT-29 transplanted tumor in nude mice; conditions: for Tumor Volume (mm3) (d30): d 30
Experimental: Then cell concentration was adjusted to 1×10^7/ml with matrigel, then each nude mouse was inoculated subcutaneously with 0.2 ml of cells at its right armpit and recorded as the first day of inoculation. When the tumor grows to be greater than or equal to 100 mm^3, the mice were randomly divided into 11 groups with 6 mice in each group: isovaleryl spiramycin I groups with doses of 25, 50 and 100 mg/kg, isovaleryl spiramycin II groups with doses of 25, 50 and 100 mg/kg, and isovaleryl spiramycin III groups with doses of 25, 50 and 100 mg/kg. Each group was continuously administered intragastrically for 30 days with a dose of 20 ml/kg. The mice were sacrificed the next day after drug withdrawal and the indicators were tested. The long diameter and short diameter of the tumor, and the body weight of each mouse were recorded every 3 days from drug administration to nude mouse sacrifice.
The body weight of the nude mice and the long diameter (a) and short diameter (b) of the transplanted tumor were measured every 3 days, and the tumor volume (v), relative tumor volume (RTV) and relative tumor proliferation rate (T/C) are calculated respectively according to the following formulas, wherein V=a×b^2/2; RTV=V/V0 (V0 is the tumor volume before administration, V is the tumor volume before sacrifice), and T/C (%)=treatment group RTV/model control group RTV×100%.
Each mouse was weighed and sacrificed. After the tumor was completely stripped off from the body of the mouse, the non-tumor tissues such as blood stains and fat were removed to weigh the tumor and calculate the tumor growth inhibition rate. The average tumor weight of each group of mice is used as an indicator of efficacy. Tumor growth inhibition rate (%)=(1−the average tumor weight of the treatment group/the average tumor weight of the model group)×100%.

[18] = HT-29, high dose (100 mg/kg in method) i.g. 30 days
[19] = HT-29, low dose (25 mg/kg in method) i.g. 30 days
[20] = HT-29, medium dose (50 mg/kg in method) i.g. 30 days

IC50 [1]: 20.79 ± 1.57 µg/mL (≈ 22.4 µM)
IC50 [2]: 18.12 ± 0.61 µg/mL (≈ 19.5 µM)
IC50 [3]: 10.31 ± 0.27 µg/mL (≈ 11.1 µM)
IC50 [4]: 17.30 ± 0.52 µg/mL (≈ 18.7 µM)
IC50 [5]: 8.42 ± 1.53 µg/mL (≈ 9.08 µM)
IC50 [6]: 11.28 ± 1.27 µg/mL (≈ 12.2 µM)
IC50 [7]: 10.24 ± 0.37 µg/mL (≈ 11 µM)
IC50 [8]: 11.01 ± 0.32 µg/mL (≈ 11.9 µM)
IC50 [9]: 17.90 ± 1.74 µg/mL (≈ 19.3 µM)
IC50 [10]: 24.03 ± 2.07 µg/mL (≈ 25.9 µM)
IC50 [11]: 19.31 ± 0.35 µg/mL (≈ 20.8 µM)
IC50 [12]: 19.93 ± 1.66 µg/mL (≈ 21.5 µM)
IC50 [13]: 9.96 ± 0.46 µg/mL (≈ 10.7 µM)
IC50 [14]: 9.39 ± 0.85 µg/mL (≈ 10.1 µM)
IC50 [15]: 5.09 ± 0.04 µg/mL (≈ 5.49 µM)
IC50 [16]: 5.08 ± 0.08 µg/mL (≈ 5.48 µM)
mouse weight compared with the model group ([17]; mouse, in vivo): no significant changes
SMILES: CO[C@@H]1[C@@H](O[C@@H]2O[C@H](C)[C@@H](O[C@H]3C[C@@](C)(O)[C@@H](OC(=O)CC(C)C)[C@H](C)O3)[C@H](N(C)C)[C@H]2O)[C@@H](CC=O)C[C@@H](C)[C@@H](O[C@H]2CC[C@H](N(C)C)[C@@H](C)O2)/C=C/C=C/C[C@@H](C)OC(=O)C[C@H]1O [Isovaleryl spiramycin I, isovaleryl spiramycin I]
Relative Tumor Proliferation Rate (T/C) [17, 18]: 29.11%
tumor growth inhibition rate [17, 18]: 70.14%
Relative Tumor Proliferation Rate (T/C) [17, 19]: 81.60%
tumor growth inhibition rate [17, 19]: 16.10%
tumor volume and relative tumor volume compared with the model group ([17]; HT-29, low, medium and high doses, P<0.05): significantly lower
Relative Tumor Proliferation Rate (T/C) [17, 20]: 49.22%
tumor growth inhibition rate [17, 20]: 49.72%
Inhibition Rate (%) ([17]; HT-29 nude mice, 25 mg/kg): 16.10%
Tumor Weight ([17]; HT-29 nude mice, 25 mg/kg): 1.97 ± 0.31 g
Inhibition Rate (%) ([17]; HT-29 nude mice, 50 mg/kg): 49.72%
Tumor Weight ([17]; HT-29 nude mice, 50 mg/kg): 1.18 ± 0.34 g
Inhibition Rate (%) ([17]; HT-29 nude mice, 100 mg/kg): 70.14%
Tumor Weight ([17]; HT-29 nude mice, 100 mg/kg): 0.70 ± 0.29 g
Relative Tumor Proliferation Rate (T/C) ([17]; dose 25 mg/kg): 81.60%
Relative Tumor Volume (RTV) ([17]; dose 25 mg/kg): 11.76 ± 4.03
Tumor Volume (mm3) (d 1) ([17]; dose 25 mg/kg): 162.77 ± 38.95 mm3
Tumor Volume (mm3) (d30) ([17]; dose 25 mg/kg): 1803.98 ± 271.55 mm3
Relative Tumor Proliferation Rate (T/C) ([17]; dose 50 mg/kg): 49.22%
Relative Tumor Volume (RTV) ([17]; dose 50 mg/kg): 7.09 ± 1.47
Tumor Volume (mm3) (d 1) ([17]; dose 50 mg/kg): 157.41 ± 37.31 mm3
Tumor Volume (mm3) (d30) ([17]; dose 50 mg/kg): 1109.16 ± 320.27 mm3
Relative Tumor Proliferation Rate (T/C) ([17]; dose 100 mg/kg): 29.11%
Relative Tumor Volume (RTV) ([17]; dose 100 mg/kg): 4.19 ± 2.23
Tumor Volume (mm3) (d 1) ([17]; dose 100 mg/kg): 169.25 ± 35.39 mm3
Tumor Volume (mm3) (d30) ([17]; dose 100 mg/kg): 648.93 ± 198.53 mm3
Body Weight (g) (d1) ([17]; mouse, in vivo, 25 mg/kg): 21.41 ± 1.41 g
Body Weight (g) (d30) ([17]; mouse, in vivo, 25 mg/kg): 20.98 ± 0.99 g
Body Weight (g) (d1) ([17]; mouse, in vivo, 50 mg/kg): 21.31 ± 1.53 g
Body Weight (g) (d30) ([17]; mouse, in vivo, 50 mg/kg): 20.56 ± 1.09 g
Body Weight (g) (d1) ([17]; mouse, in vivo, 100 mg/kg): 20.77 ± 1.13 g
Body Weight (g) (d30) ([17]; mouse, in vivo, 100 mg/kg): 21.19 ± 1.26 g

SMILES: O=P1(N(CCCl)CCCl)NCCCO1 (centres unmarked) [Cyclophosphamide, cyclophosphamide, reference compound]
Inhibition Rate (%) ([17]; HT-29 nude mice, 30 mg/kg): 78.87%
Tumor Weight ([17]; HT-29 nude mice, 30 mg/kg): 0.50 ± 0.25 g
Body Weight (g) (d1) ([17]; HT-29 nude mice, 30 mg/kg, d1): 21.42 ± 1.35 g
Body Weight (g) (d30) ([17]; HT-29 nude mice, 30 mg/kg, d30): 18.69 ± 1.21 g
Relative Tumor Proliferation Rate (T/C) ([17]; dose 30 mg/kg): 19.84%
Relative Tumor Volume (RTV) ([17]; dose 30 mg/kg): 2.86 ± 1.44
Tumor Volume (mm3) (d 1) ([17]; dose 30 mg/kg): 176.59 ± 36.81 mm3
Tumor Volume (mm3) (d30) ([17]; dose 30 mg/kg): 477.12 ± 166.46 mm3
